29 molecules from patent US8697739B2, “Bicyclic acetyl-CoA carboxylase inhibitors and uses thereof” (Novartis AG, priority 2010, dated 2014) can be followed below.

By IC50 is commonly meant the point on the concentration scale where inhibition reaches its midpoint.

For the assay, the target named is T1, human acetyl-CoA carboxylase 2 (ACC2) (Homo sapiens, UniProt O00763).
T1 construct: The cDNA encoding amino acids 144 to 2458 of human acetyl-CoA carboxylase 2; made in house; host or cells: Sf9 insect cells (baculovirus, pFastBac1)
T1 sequence (O00763 144-2458): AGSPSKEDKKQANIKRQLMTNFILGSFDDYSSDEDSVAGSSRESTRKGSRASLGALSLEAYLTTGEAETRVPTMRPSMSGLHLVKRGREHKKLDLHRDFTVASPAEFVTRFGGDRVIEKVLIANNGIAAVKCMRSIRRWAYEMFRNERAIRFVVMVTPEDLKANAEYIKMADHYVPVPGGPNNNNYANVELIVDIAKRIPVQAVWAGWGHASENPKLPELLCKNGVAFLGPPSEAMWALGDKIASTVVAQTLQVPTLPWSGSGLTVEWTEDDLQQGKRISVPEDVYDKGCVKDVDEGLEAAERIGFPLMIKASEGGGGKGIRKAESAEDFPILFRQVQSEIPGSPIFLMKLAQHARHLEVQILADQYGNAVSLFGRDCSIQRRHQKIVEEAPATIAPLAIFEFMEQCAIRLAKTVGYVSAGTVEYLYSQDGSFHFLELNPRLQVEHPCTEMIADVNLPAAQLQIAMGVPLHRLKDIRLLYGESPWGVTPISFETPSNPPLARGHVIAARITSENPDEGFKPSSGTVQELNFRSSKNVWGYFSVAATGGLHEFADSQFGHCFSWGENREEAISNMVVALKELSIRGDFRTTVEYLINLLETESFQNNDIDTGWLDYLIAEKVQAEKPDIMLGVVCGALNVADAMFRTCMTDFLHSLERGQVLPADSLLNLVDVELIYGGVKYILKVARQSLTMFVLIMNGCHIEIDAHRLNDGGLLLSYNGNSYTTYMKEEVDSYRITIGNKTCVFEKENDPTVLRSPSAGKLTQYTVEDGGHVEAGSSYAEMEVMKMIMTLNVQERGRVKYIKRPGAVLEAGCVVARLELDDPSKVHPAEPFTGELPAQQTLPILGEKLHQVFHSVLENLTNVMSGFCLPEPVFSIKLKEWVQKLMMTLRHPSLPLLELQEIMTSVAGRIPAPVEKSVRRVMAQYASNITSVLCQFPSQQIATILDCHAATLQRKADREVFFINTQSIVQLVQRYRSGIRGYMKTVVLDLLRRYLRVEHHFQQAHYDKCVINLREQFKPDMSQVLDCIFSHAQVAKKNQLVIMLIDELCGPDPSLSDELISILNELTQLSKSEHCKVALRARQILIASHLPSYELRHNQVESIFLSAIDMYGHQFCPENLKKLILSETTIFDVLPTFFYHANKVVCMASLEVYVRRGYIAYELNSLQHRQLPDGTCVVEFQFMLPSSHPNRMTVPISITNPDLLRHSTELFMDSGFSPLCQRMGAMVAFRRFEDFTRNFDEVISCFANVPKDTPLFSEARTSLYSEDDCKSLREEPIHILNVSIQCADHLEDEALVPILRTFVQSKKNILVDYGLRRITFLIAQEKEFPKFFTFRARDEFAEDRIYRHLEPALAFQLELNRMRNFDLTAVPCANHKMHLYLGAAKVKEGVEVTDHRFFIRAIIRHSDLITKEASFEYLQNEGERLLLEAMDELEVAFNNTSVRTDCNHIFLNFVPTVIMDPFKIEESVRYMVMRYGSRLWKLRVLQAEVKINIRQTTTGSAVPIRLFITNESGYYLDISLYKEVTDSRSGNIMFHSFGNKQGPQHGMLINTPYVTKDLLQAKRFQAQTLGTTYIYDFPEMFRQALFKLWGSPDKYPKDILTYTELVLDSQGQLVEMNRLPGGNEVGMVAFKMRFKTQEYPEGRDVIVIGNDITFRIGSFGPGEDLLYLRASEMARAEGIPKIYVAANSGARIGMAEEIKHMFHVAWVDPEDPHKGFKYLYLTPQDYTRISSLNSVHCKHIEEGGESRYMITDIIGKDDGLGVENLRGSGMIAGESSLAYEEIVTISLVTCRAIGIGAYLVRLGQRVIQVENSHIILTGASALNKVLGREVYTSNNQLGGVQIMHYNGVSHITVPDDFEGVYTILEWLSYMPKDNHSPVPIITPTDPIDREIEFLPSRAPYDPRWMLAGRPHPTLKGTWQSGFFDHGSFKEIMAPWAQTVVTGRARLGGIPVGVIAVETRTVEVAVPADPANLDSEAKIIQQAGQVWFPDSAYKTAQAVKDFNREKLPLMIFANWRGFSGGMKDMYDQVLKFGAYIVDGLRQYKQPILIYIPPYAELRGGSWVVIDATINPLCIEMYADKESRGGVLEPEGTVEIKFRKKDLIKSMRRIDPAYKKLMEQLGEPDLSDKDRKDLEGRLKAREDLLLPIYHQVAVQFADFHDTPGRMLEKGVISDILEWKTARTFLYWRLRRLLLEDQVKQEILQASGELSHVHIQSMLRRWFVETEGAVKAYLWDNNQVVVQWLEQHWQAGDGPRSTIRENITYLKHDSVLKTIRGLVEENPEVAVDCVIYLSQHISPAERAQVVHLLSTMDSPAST
Briefly: Acetyl-CoA carboxylase enzyme assay (malonyl-CoA formation by LC/MS/MS). In kind it is biochemical. To be noted: recombinant human ACC2 (aa 144-2458); read-out: IC50 ACC2. The procedure, abridged: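 Malonyl-CoA formation was read by LC/MS/MS MRM against a [13C3]-malonyl-CoA internal standard, after acetic acid quench. The enzyme was baculovirus/Sf9-expressed human ACC2 residues 144–2458, given 15 minutes room-temperature compound preincubation in HEPES pH 7.5 buffer with MgCl2, citrate and DTT. Substrate solution held 50 μM acetyl-CoA, 120 μM ATP and 2 mM KHCO3.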
`C[C@H]1CN(C)CCN1C(=O)[C@H]1CC[C@H](NS(=O)(=O)c2ccc3cc(-c4ccccc4)n(C)c3c2)CC1` [Example 412, N-((1S,4r)-4-((S)-2,4-dimethylpiperazine-1-carbonyl)cyclohexyl)-1-methyl-2-phenyl-1H-indole-6-sulfonamide]: the IC50 is 240 nM.
Take `CC(C)OC(=O)c1ccc(NS(=O)(=O)c2ccc3[nH]c(-c4ccccc4)nc3c2)cc1` [Example 488, isopropyl 4-(2-phenyl-1H-benzo[d]imidazole-5-sulfonamido)benzoate]: the half-inhibitory concentration (IC50) came to 1030 nM.
For the molecule `Cn1c(CCC(=O)O)cc2ccc(S(=O)(=O)N[C@H]3CC[C@H](C(=O)N4CCCC4c4ccc(F)cc4)CC3)cc21` (some centres unmarked) [Example 370, 3-(6-(N-((1r,4r)-4-(2-(4-fluorophenyl)pyrrolidine-1-carbonyl)cyclohexyl)sulfamoyl)-1-methyl-1H-indol-2-yl)propanoic acid], the concentration for half-maximal inhibition (IC50) was 270 nM.
For `CN1CCN(c2ccc3cc(S(=O)(=O)N[C@H]4CC[C@H](C(=O)N[C@H](c5ccccc5)C(C)(C)O)CC4)ccc3n2)CC1` [Example 258, (1r,4R)-N-((R)-2-hydroxy-2-methyl-1-phenylpropyl)-4-(2-(4-methylpiperazin-1-yl)quinoline-6-sulfonamido)cyclohexanecarboxamide] the value was 80 nM.
For `Cn1c(C2CC2)c(Cl)c2ccc(S(=O)(=O)N[C@H]3CC[C@H](C(=O)N4CCOCC4)CC3)cc21` [Example 363, 3-chloro-2-cyclopropyl-1-methyl-N-((1r,4r)-4-(morpholine-4-carbonyl)cyclohexyl)-1H-indole-6-sulfonamide], the IC50 is 120 nM.
For `CC(C)(C)OC(=O)N1CCN(c2ccc(-c3nc4cc(S(=O)(=O)N[C@H]5CC[C@H](C(=O)N6CCOCC6)CC5)ccc4[nH]3)cc2)CC1` [Example 103, tert-butyl 4-(4-(5-(N-((1r,4r)-4-(morpholine-4-carbonyl)cyclohexyl)sulfamoyl)-1H-benzo[d]imidazol-2-yl)phenyl)piperazine-1-carboxylate] the value was 38 nM.
As to `O=C([C@H]1CC[C@H](NS(=O)(=O)c2ccc3[nH]c(Nc4ccccc4)nc3c2)CC1)N1CCOCC1` [Example 584, N-((1r,4r)-4-(morpholine-4-carbonyl)cyclohexyl)-2-(phenylamino)-1H-benzo[d]imidazole-5-sulfonamide], the IC50 was determined as 119 nM.
Regarding `C[C@@H](NC(=O)[C@H]1CC[C@H](NS(=O)(=O)c2cnc3c(c2)NCCN3)CC1)c1ccc(F)cc1` [Example 33, (1r,4R)—N—((R)-1-(4-fluorophenyl)ethyl)-4-(1,2,3,4-tetrahydropyrido[3,2-b]pyrazine-7-sulfonamido)cyclohexanecarboxamide], the IC50 came to 140 nM.
For `O=C([C@H]1CC[C@H](NS(=O)(=O)c2cnc3c(c2)NCCS3)CC1)N1CCNC[C@@H]1c1ccccc1` [Example 192, N-((1S,4r)-4-((S)-2-phenylpiperazine-1-carbonyl)cyclohexyl)-2,3-dihydro-1H-pyrido[2,3-b][1,4]thiazine-7-sulfonamide] the value was 15 nM.
The same measure for `CC(C)OC(=O)c1ccc(NS(=O)(=O)c2ccc3[nH]c(Nc4ccc([N+](=O)[O-])cc4)nc3c2)cc1` [Example 550, isopropyl 4-(2-(4-nitrophenylamino)-1H-benzo[d]imidazole-5-sulfonamido)benzoate]: 240 nM.
On to `C[C@@H](NC(=O)[C@H]1CC[C@H](NS(=O)(=O)c2ccc3[nH]c(-c4cccc(C(=O)O)c4)nc3c2)CC1)c1ccccc1` [Example 279, 3-(5-(N-((1R,4r)-4-((R)-1-phenylethylcarbamoyl)cyclohexyl)sulfamoyl)-1H-benzo[d]imidazol-2-yl)benzoic acid], for which the IC50 is 100 nM.
For `C[C@@H](NC(=O)[C@H]1CC[C@H](NS(=O)(=O)c2ccc3[nH]c(-c4ccccc4)cc3c2)CC1)c1ccccc1` [Example 13, (1r,4R)-4-(2-phenyl-1H-indole-5-sulfonamido)-N—((R)-1-phenylethyl)cyclohexanecarboxamide] the value was 65 nM; for `C[C@@H](NC(=O)[C@H]1CC[C@H](NS(=O)(=O)c2cnc3c(c2)CCCN3C)CC1)c1ccc(F)cc1` [Example 145, (1r,4R)-N-((R)-1-(4-fluorophenyl)ethyl)-4-(8-methyl-5,6,7,8-tetrahydro-1,8-naphthyridine-3-sulfonamido)cyclohexanecarboxamide], 128 nM.
The same measure for `C[C@@H](NC(=O)[C@H]1CC[C@H](NS(=O)(=O)c2cccc3ccccc23)CC1)c1ccc(F)cc1` [Example 678, (1r,4R)-N-((R)-1-(4-fluorophenyl)ethyl)-4-(naphthalene-1-sulfonamido)cyclohexanecarboxamide]: 433 nM; for `C[C@@H](NC(=O)[C@H]1CC[C@H](NS(=O)(=O)c2cnc3c(c2)N(C(=O)OC2CCCCC2)CCN3)CC1)c1ccc(F)cc1` [Example 210, cyclohexyl 7-(N-((1R,4r)-4-((R)-1-(4-fluorophenyl)ethylcarbamoyl)cyclohexyl)sulfamoyl)-3,4-dihydropyrido[3,2-b]pyrazine-1(2H)-carboxylate]: 225 nM; for `Cn1c(C2CC2)c(C#N)c2ccc(S(=O)(=O)N[C@H]3CC[C@H](C(=O)N4CCN[C@@H](C(F)(F)F)C4)CC3)cc21` [Example 380, 3-cyano-2-cyclopropyl-1-methyl-N-((1R,4r)-4-((R)-3-(trifluoromethyl)piperazine-1-carbonyl)cyclohexyl)-1H-indole-6-sulfonamide]: 75 nM.
The same measure for `C[C@H]1COCCN1C(=O)[C@H]1CC[C@H](NS(=O)(=O)c2ccc3c(C#N)c(C4CC4)n(C)c3c2)CC1` [Example 421, 3-cyano-2-cyclopropyl-1-methyl-N-((1S,4r)-4-((S)-3-methylmorpholine-4-carbonyl)cyclohexyl)-1H-indole-6-sulfonamide]: 50 nM; for `C[C@@H](NC(=O)[C@H]1CC[C@H](NS(=O)(=O)c2ccc3c(c2)cc(-c2ccccc2)n3C)CC1)c1ccc(F)cc1` [Example 14, (1r,4R)—N—((R)-1-(4-fluorophenyl)ethyl)-4-(1-methyl-2-phenyl-1H-indole-5-sulfonamido)cyclohexanecarboxamide]: 10 nM.
Regarding `Cn1c(C2CC2)cc2ccc(S(=O)(=O)N[C@H]3CC[C@H](C(=O)N4CCCC(C(C)(C)O)C4)CC3)cc21` (some centres unmarked) [Example 368, 2-cyclopropyl-N-((1r,4r)-4-(3-(2-hydroxypropan-2-yl)piperidine-1-carbonyl)cyclohexyl)-1-methyl-1H-indole-6-sulfonamide], the IC50 is 145 nM.
`C[C@@H](NC(=O)[C@H]1CC[C@H](NS(=O)(=O)c2ccc3[nH]c(Nc4ccc(N5CCN(C)CC5)cc4)nc3c2)CC1)c1ccccc1` [Example 606, (1r,4R)-4-(2-(4-(4-methylpiperazin-1-yl)phenylamino)-1H-benzo[d]imidazole-5-sulfonamido)-N-((R)-1-phenylethyl)cyclohexanecarboxamide]: the IC50 is less than 10 nM.
The same measure for `C[C@@H](NC(=O)[C@H]1CC[C@H](NS(=O)(=O)c2ccc3nc(N4CCNC5(CC5)C4)ccc3c2)CC1)c1ccc(F)cc1` [Example 237, (1r,4R)-4-(2-(4,7-diazaspiro[2.5]octan-7-yl)quinoline-6-sulfonamido)-N-((R)-1-(4-fluorophenyl)ethyl)cyclohexanecarboxamide]: 85 nM; for `CCCOC(=O)c1ccc(OS(=O)(=O)c2ccc3nc(-c4ccccc4)[nH]c3c2)cc1` [Example 493, propyl 4-(2-phenyl-1H-benzo[d]imidazol-6-ylsulfonyloxy)benzoate]: greater than 139000 nM.
Regarding `CC(C)OC(=O)c1ccc(NS(=O)(=O)c2ccc3[nH]c(Nc4cccc([N+](=O)[O-])c4)nc3c2)cc1` [Example 538, isopropyl 4-(2-(3-nitrophenylamino)-1H-benzo[d]imidazole-5-sulfonamido)benzoate], the IC50 is 77 nM.
For the molecule `C[C@@H](NC(=O)[C@H]1CC[C@H](NS(=O)(=O)c2ccc3ccccc3c2)CC1)c1ccc(F)cc1` [Example 677, (1r,4R)-N-((R)-1-(4-fluorophenyl)ethyl)-4-(naphthalene-2-sulfonamido)cyclohexanecarboxamide], the IC50 was 10 nM.
The same measure for `CC(C)[C@H]1COCCN1C(=O)[C@H]1CC[C@H](NS(=O)(=O)c2ccc3nc(N4CCN(C)CC4)ccc3c2)CC1` [Example 260, N-((1S,4r)-4-((S)-3-isopropylmorpholine-4-carbonyl)cyclohexyl)-2-(4-methylpiperazin-1-yl)quinoline-6-sulfonamide]: 2960 nM; for `Cn1c(-c2ccccc2)cc2ccc(S(=O)(=O)N[C@H]3CC[C@H](C(=O)N[C@@H](c4ccccc4)C(C)(C)C(=O)O)CC3)cc21` [Example 411, (S)-2,2-dimethyl-3-((1r,4S)-4-(1-methyl-2-phenyl-1H-indole-6-sulfonamido)cyclohexanecarboxamido)-3-phenylpropanoic acid]: less than 10 nM; for `C[C@@H](NC(=O)[C@H]1CC[C@@H](NS(=O)(=O)c2ccc3ccccc3c2)CC1)c1ccc(F)cc1` [Example 147, (1s,4S)-N-((R)-1-(4-fluorophenyl)ethyl)-4-(naphthalene-2-sulfonamido)cyclohexanecarboxamide]: greater than 35000 nM.
The same measure for `COCCOc1ccc2cc(S(=O)(=O)N[C@H]3CC[C@H](C(=O)N[C@H](C)c4ccc(F)cc4)CC3)ccc2n1` [Example 68, (1r,4R)-N-((R)-1-(4-fluorophenyl)ethyl)-4-(2-(2-methoxyethoxy)quinoline-6-sulfonamido)cyclohexanecarboxamide]: 70 nM; for `C[C@@H](NC(=O)C12CC3CC(C1)C(NS(=O)(=O)c1cnc4c(c1)NCCN4)C(C3)C2)c1ccc(F)cc1` (stereo partly drawn) [Example 262, 4-(1,2,3,4-Tetrahydro-pyrido[2,3-b]pyrazine-7-sulfonylamino)-adamantane-1-carboxylic acid [(R)-1-(4-fluoro-phenyl)-ethyl]-amide]: 20 nM.
